Molecules are shown by their SMILES.

The subject of the first data set is TNF-α release from peripheral blood mononuclear cells. Put plainly: Cell based assay for TNF-α release, LPS stimulation of human PBMNC's (ELISA). Conditions: PBMC, LPS 20 ng/ml, overnight, span over the group, units given in the value. The procedure: Human whole blood was collected in vacutainer tubes containing EDTA as an anti coagulant. A blood sample (7 ml) was carefully layered over 5 ml PMN Cell Isolation Medium (Robbins Scientific) in a 15 ml round bottom centrifuge tubes. The sample was centrifuged at 450-500×g for 30-35 minutes in a swing-out rotor at room temperature. After centrifugation the top band of cells were removed and washed 3 times with PBS w/o calcium or magnesium. The cells were centrifuged at 400×g for 10 minutes at room temperature. The cells were resuspended in Macrophage Serum Free Medium (Gibco BRL) at concentration of 2 million cells/ml.
PBM cells (0.1 ml; 2 million/ml) were co-incubated with 0.1 ml of compound (10-0.41 μM, final concentration) for 1 hour in flat bottom 96 well microtiter plate. Compounds were dissolved in DMSO initially and diluted in TCM for a final concentration of 0.1% DMSO. LPS (Cal biochem, 20 ng/ml, final concentration) was then added at volume of 0.010 ml. Cultures were incubated overnight at 37° C.). Supernatant were then removed and tested by ELISA for TNF-α release. Viability was analyzed using MTT. After 0.1 ml supernatant was collected, 0.1 ml of 0.25 mg/ml of MTT was added to remaining 0.1 ml of cells. The cells were incubated at 37° C. for 2-4 hours, then the O.D was measured at 490-650 nm n.
The TNF-α levels released in the culture medium were quantitated by ELISA. Inhibitory potency was expressed as IC50.
(An ELISA detects its analyte on a solid surface through an enzyme-linked reagent.)
As for `CN1CC2C(C1)C2Nc1ncc2cc(-c3ccccc3Cl)c(=O)n(C3CC3)c2n1` (centres unmarked) [Compound No. 20, 6-(2-Chlorophenyl)-8-cyclopropyl-2-(3-methyl-3-aza-bicyclo[3.1.0]hex-6-ylamino)-8H-pyrido[2,3-d]pyrimidin-7-one], the IC50 lay within 12 to 2300 nM. With `O=c1c(-c2ccccc2Cl)cc2cnc(NC3C4COCC3CN(Cc3ccccc3)C4)nc2n1C1CC1` (centres unmarked) [Compound No. 33, 2-(7-Benzyl-3-oxa-7-aza-bicyclo[3.3.1]non-9-ylamino)-6-(2-chlorophenyl)-8-cyclopropyl-8H-pyrido[2,3-d]pyrimidin-7-one], the half-maximal inhibitory concentration (IC50) lay within 12 to 2300 nM. `Cn1c(=O)c(-c2ccccc2Cl)cc2cnc(NC3C4CN(S(C)(=O)=O)CC43)nc21` (centres unmarked) [Compound No. 4, 6-(2-Chlorophenyl)-2-(3-methanesulphonyl-3-aza-bicyclo[3.1.0]hex-6-ylamino)-8-methyl-8H-pyrido[2,3-d]pyrimidin-7-one] gave an IC50 of 12 to 2300 nM. The same measure, in the same setting: the same measure for `O=c1c(-c2ccccc2Cl)cc2cnc(NC3C4CNCC43)nc2n1C1CC1` (centres unmarked) [Compound No. 19, 2-(3-Aza-bicyclo[3.1.0]hex-6-ylamino)-6-(2-chlorophenyl)-8-cyclopropyl-8H-pyrido[2,3-d]pyrimidin-7-one]: 12 to 2300 nM; for `Cn1c(=O)c(-c2ccccc2Cl)cc2cnc(NC3C4CN(C(=O)OCc5ccccc5)CC43)nc21` (centres unmarked) [Compound No. 6, 6-[6-(2-Chlorophenyl)-8-methyl-7-oxo-7,8-dihydro-pyrido[2,3-d]pyrimidin-2-ylamino]-3-aza-bicyclo[3.1.0]hexane-3-carboxylic acid benzyl ester]: 12 to 2300 nM; for `CC(=O)N1CC2C(C1)C2Nc1ncc2cc(-c3ccccc3Cl)c(=O)n(C3CC3)c2n1` (centres unmarked) [Compound No. 23, 2-(3-Acetyl-3-aza-bicyclo[3.1.0]hex-6-ylamino)-6-(2-chlorophenyl)-8-cyclopropyl-8H-pyrido[2,3-d]pyrimidin-7-one]: 12 to 2300 nM. Same read-out and setting: the same measure for `O=c1c(-c2ccccc2Cl)cc2cnc(NCC3C4CN(Cc5ccccc5)CC34)nc2n1-c1ccc(F)cc1` (centres unmarked) [Compound No. 16, 2-[(3-Benzyl-3-aza-bicyclo[3.1.0]hex-6-ylmethyl)-amino]-6-(2-chlorophenyl)-8-(4-fluorophenyl)-8H-pyrido[2,3-d]pyrimidin-7-one]: 12 to 2300 nM; for `O=c1[nH]c2nc(NC3C4CN(Cc5ccccc5)CC43)ncc2cc1-c1ccccc1Cl` (centres unmarked) [Compound No. 27, 2-(3-Benzyl-3-aza-bicyclo[3.1.0]hex-6-ylamino)-6-(2-chlorophenyl)-8H-pyrido[2,3-d]pyrimidin-7-one]: 12 to 2300 nM; for `Cn1c(=O)c(-c2ccccc2Cl)cc2cnc(NC3C4CN(C(=O)Nc5ccc(F)cc5)CC43)nc21` (centres unmarked) [Compound No. 2, 6-[6-(2-Chlorophenyl)-8-methyl-7-oxo-7,8-dihydro-pyrido[2,3-d]pyrimidin-2-ylamino]-3-aza-bicyclo[3.1.0]hexane-3-carboxylic acid-(4-fluorophenyl)-amide]: 12 to 2300 nM. Same read-out and setting: the result for `NC(=O)N1CC2C(C1)C2Nc1ncc2cc(-c3ccccc3Cl)c(=O)n(C3CC3)c2n1` (centres unmarked) [Compound No. 63, 6-[6-(2-Chlorophenyl)-8-cyclopropyl-7-oxo-7,8-dihydro-pyrido[2,3-d]pyrimidin-2-ylamino]-3-aza-bicyclo[3.1.0]hexane-3-carboxylic acid amide] reads 12 to 2300 nM; that for `O=c1c(-c2ccccc2Cl)cc2cnc(NC3C4CN(Cc5ccccc5)CC43)nc2n1C1CC1` (centres unmarked) [Compound No. 17, 2-(3-Benzyl-3-aza-bicyclo[3.1.0]hex-6-ylamino)-6-(2-chlorophenyl)-8-cyclopropyl-8H-pyrido[2,3-d]pyrimidin-7-one], 12 to 2300 nM; that for `O=C(OCc1ccccc1)N1CC2C(C1)C2Nc1ncc2cc(-c3ccccc3Cl)c(=O)n(-c3ccc(F)cc3)c2n1` (centres unmarked) [Compound No. 12, 6-[6-(2-Chlorophenyl)-8-(4-fluorophenyl)-7-oxo-7,8-dihydro-pyrido[2,3-d]pyrimidin-2-ylamino]-3-aza-bicyclo[3.1.0]hexane-3-carboxylic acid benzyl ester], 12 to 2300 nM. As for `N#CCn1c(=O)c(-c2ccccc2Cl)cc2cnc(NC3C4CN(Cc5ccccc5)CC43)nc21` (centres unmarked) [Compound No. 56, [2-(3-Benzyl-3-aza-bicycyclo[3.1.0]hex-6-ylamino)-6-(2-chlorophenyl)-7-oxo-7H-pyrido[2,3-d]pyrimidin-8-yl]-acetonitrile], the IC50 fell in the range of 12 to 2300 nM. The same measure, in the same setting: the same measure for `O=C(OCc1ccccc1)N1CC2C(C1)C2Nc1ncc2cc(-c3ccccc3Cl)c(=O)n(C3CC3)c2n1` (centres unmarked) [Compound No. 18, 6-[6-(2-Chlorophenyl)-8-cyclopropyl-7-oxo-7,8-dihydro-pyrido[2,3-d]pyrimidin-2-ylamino]-3-aza-bicyclo[3.1.0]hexane-3-carboxylic acid benzyl ester]: 12 to 2300 nM; for `N#CCn1c(=O)c(-c2ccccc2Cl)cc2cnc(NC3C4CN(C(=O)Nc5ccc(F)cc5)CC43)nc21` (centres unmarked) [Compound No. 57, 6-[6-(2-Chlorophenyl)-8-cyanomethyl-7-oxo-7,8-dihydro-pyrido[2,3-d]pyrimidin-2-ylamino]-3-aza-bicyclo[3.1.0]hexane-3-carboxylic acid (4-fluorophenyl)-amide]: 12 to 2300 nM; for `O=c1[nH]c2nc(NC3C4CNCC43)ncc2cc1-c1ccccc1Cl` (centres unmarked) [Compound No. 58, 2-(3-Aza-bicyclo[3.1.0]hex-6-ylamino)-6-(2-chlorophenyl)-8H-pyrido[2,3-d]pyrimidin-7-one]: 12 to 2300 nM.

For the compound `O=C(Nc1ccc(F)cc1)N1CC2C(C1)C2Nc1ncc2cc(-c3ccccc3Cl)c(=O)n(C3CC3)c2n1` (centres unmarked) [Compound No. 26, 6-[6-(2-Chlorophenyl)-8-cyclopropyl-7-oxo-7,8-dihydro-pyrido[2,3-d]pyrimidin-2-ylamino]-3-aza-bicyclo[3.1.0]hexane-3-carboxylic acid-(4-fluorophenyl)-amide], the IC50 lay in the range of 12 to 2300 nM.

System in a further data set: not listed separately
Put plainly: Precipitate formation in the DMSO solvent used. It counts as physicochemical. The note with it: DMSO solvent used in testing.
For the compound `O=c1c(-c2ccccc2Cl)cc2cnc(NC3C4CN(S(=O)(=O)c5ccc(C(F)(F)F)cc5)CC43)nc2n1C1CC1` (centres unmarked) [Compound No. 37, 6-(2-Chlorophenyl)-8-cyclopropyl-2-[3-(4-trifluoromethylbenzenesulfonyl)-3-aza-bicyclo[3.1.0]hex-6-ylamino]-8H-pyrido[2,3-d]pyrimidin-7-one], the “formed a precipitate in the DMSO solvent used” value was “formed a precipitate in the DMSO solvent used”. On the same count and under the same terms, the result for `Cc1ccc(S(=O)(=O)N2CC3C(C2)C3Nc2ncc3cc(-c4ccccc4Cl)c(=O)n(C4CC4)c3n2)cc1` (centres unmarked) [Compound No. 21, 6-(2-Chlorophenyl)-8-cyclopropyl-2-[3-(toluene-4-sulphonyl)-3-aza-bicyclo[3.1.0]hex-6-ylamino]-8H-pyrido[2,3-d]pyrimidin-7-one] reads “formed a precipitate in the DMSO solvent used”; that for `Cc1ccc(S(=O)(=O)N2CC3C(C2)C3Nc2ncc3cc(-c4ccccc4Cl)c(=O)n(C)c3n2)cc1` (centres unmarked) [Compound No. 43, 6-(2-Chlorophenyl)-8-methyl-2-[3-(toluene-4-sulfonyl)-3-aza-bicyclo[3.1.0]hex-6-ylamino]-8H-pyrido[2,3-d]pyrimidin-7-one], “formed a precipitate in the DMSO solvent used”.

By IC50 is commonly meant the concentration needed to halve the response being measured.

The values above are taken from patent US20090131430A1, “PYRIDO'2,3-DIPYRIMIDINES AS ANTI-INFLAMMATORY AGENTS” (priority 2004, published 2009).
